Test results taken from PMC4279406, “Simultaneous targeting of PI3Kδ and a PI3Kδ-dependent MEK1/2-Erk1/2 pathway for therapy in pediatric B-cell acute lymphoblastic leukemia” (Oncotarget, 2014).

How the values were obtained:
[1] = system: PI3Kβ (LPA-stimulated MEF cells); assay: LPA-induced Akt phosphorylation in MEF cells; assay type: cell-based, murine; settings: up to 0.5 μM; LPA 10 μM; 1 h pre-incubation
Procedure: In fibroblasts, signals from the insulin-like growth factor 1 (IGF-1) receptor are mediated by PI3Kα, while lysophosphatidic acid (LPA) stimulates G-protein coupled receptor (GPCR) signals via PI3Kβ[26]. After being pre-incubated with X-370, murine embryonic fibroblasts cultured in serum-free medium were stimulated with IGF-1 or LPA. […] Either PI3Kδ or PI3Kγ can be activated in THP-1 monocytes dependent on the stimulating ligand, among which macrophage colony stimulating factor (M-CSF/CSF-1) activates RTK-coupled PI3Kδ, while monocyte chemoattractant protein-1 (MCP-1) activates PI3Kγ [24]. Accordingly, THP-1 cells cultured in serum-free medium were stimulated with MCP-1 or M-CSF in the presence of X-370 and phosphorylated Akt was measured.
Cell lysates were probed with indicated antibodies. The IC50 values were calculated based on relative band intensity measured with ImageQuant™ TL (GE Healthcare Life Sciences, Piscataway, NJ) (B). Data shown are mean values from three independent experiments. (C, D, E, F) X-370 blocked stimuli-triggered PI3Kδ activation. MEF cells and THP-1 were starved in serum-free medium for 12 h or 4 h respectively and X-370 were added for an additional 1 h treatment following stimulation of IGF-1 at 100 ng/ml for MEF cells (C), LPA at 10 μM for MEF cells (D), MCP-1 at 100ng/ml for THP-1 (E) and M-CSF at 50 ng/ml for THP-1 (F). […]

Raji cells = assay: BrdU incorporation assay; assay type: cell-based, human; settings: 1 μM, 24 h
Procedure: Simultaneous targeting of PI3Kδ and a PI3Kδ-dependent MEK1/2-Erk1/2 pathway for therapy in pediatric B-cell acute lymphoblastic […]
Cells were treated as indicated conditions and then subjected to lysate to perform standard Western blot as described previously1. Briefly, whole-cell lysates and SDS-loading buffer diluted cell fractions were analyzed on SDS-PAGE gels. Transfer to nitrocellulose membranes, nonfat milk blocking, probing with indicated primary antibodies and the corresponding HRP-conjugated second antibodies.
Chemiluminescence were performed and captured using ImageQuant LAS 4000 (GE healthcare Life Sciences, Piscataway, NJ, USA) and band intensity was measure both with ImageQuant™ TL (GE Healthcare Life Sciences) 2.
Caspase 3/7 activity assay
Raji cells were treated with or without X-370 at 1 μM, 5μM and 10 μM for 24, 48 and 72 hours, thenwere measured using the Caspase-Glo® 3/7 Assay (Promega, US) following the protocol and relative caspase-3/7 activity was normalized to cell number which DMSO control was the base line.
5-bromo-2'-deoxyuridine (BrdU) incorporation Assay
5-bromo-2'-deoxyuridine (BrdU) incorporation was performed using FITC BrdU Flow Kit (BD Pharmingen, San Diego, CA) according to the provided protocol.
Figure S1;. CAL-101 docked to the crystal structure of PI3Kδ. […]

Raji-R cells = assay: Proliferation of rituximab-resistant Raji-R cells (CCK-8); assay type: cell-based, human
Procedure: Raji and SU-DHL-6 cells were treated with X-370 for 1 h (left panel) or treated with 0.5 μM X-370 for indicated times (middle panel). Right panel, Raji cells were incubated in fresh medium following treatment with 0.5 μM X-370 for 1 h. Indicated proteins were detected. (B) Raji-R (the rituximab-resistant derivatives of Raji cells) cells were resistant to X-370. The activity of X-370 on the proliferation of Raji parent and Raji-R cells was determined by CCK-8 assay as described in the methods section. (C) X-370 blocked phosphorylation of Akt but not Erk1/2 in Raji-R cells. Raji-R cells were treated with X-370 for 1h and indicated proteins were detected. Data shown are representative from three independent experiments.
Cell viability was assessed using Cell Counting Kit (CCK-8, Dojindo, Japan) following the manufacturer's protocol and OD values were measured with a Spectramax M5 plate reader (Molecular Devices, Sunnyvale, CA)[45].

`O=C(N1CCCC1)N1CCC(n2cnc3c(-n4c(C(F)F)nc5ccccc54)nc(N4CCOCC4)nc32)CC1` [X-370] was tested, and the “LPA-induced Akt phosphorylation” value [1] was “partially inhibited”, the “DNA synthesis (BrdU incorporation)” value (Raji cells) was “readily inhibited” and the “sensitivity of proliferation compared to parental Raji cells” value (Raji-R cells) was “resistant”.
